Measured values from patent US20250002955A1, “Method for Promoting Production of Exopolysaccharide by Bifidobacterium Bacteria” (TOHOKU UNIVERSITY, priority 2021, published 2025).

Legend:
Type in all cases: cell-based
[1] = test system: Bifidobacterium breve AT-APC-FucE1 strain; assay: Influence of presence or absence of L-fucose in culture medium on EPS production amount by AT-APC-FucE1 strain; conditions: 0.5% sugar in mMRS culture medium, anaerobic, 37° C., 96 hours
Procedure: The 0.5% Glu mMRS culture medium was inoculated with the AT-APC-FucE1 strain, and pre-culturing was implemented anaerobically at 37° C. for 24 hours. An amount of 100 μL of the pre-cultured culture solution was inoculated into each of a 0.5% Fuc mMRS culture medium (mMRS liquid culture medium comprising 0.5 wt. % of L-fucose) and a 0.5% Glu mMRS culture medium, and then cultured anaerobically at 37° C. for 96 hours.
The amount of crude EPS extracted from the supernatant of each culture solution was approximately the same (13.33 mg/1000 mL). However, when the amount of protein in these crude EPS samples was measured, and the amount of protein was subtracted from the amount of crude EPS, the amount of EPS produced in the culture medium that used D-glucose (that is, the 0.5% Glu mMRS culture medium) was 9.34 mg/1000 mL, whereas the amount of EPS produced in the culture medium that used L-fucose (that is, the 0.5% Fuc mMRS culture medium) was 13.14 mg/1000 mL.

[2] = test system: Bifidobacterium animalis subsp. lactis JCM10602 strain; assay: Induction of EPS production by L-fucose in JCM10602 strain; conditions: anaerobic, 37° C.; for amount of EPS produced, extracted with ethanol / amount of EPS produced, extracted with trichloracetic acid: 0.5% sugar in mMRS culture medium, 96 hours, culture supernatant
Procedure: In order to confirm whether the production of EPS is induced by L-fucose in other bacteria of the genus Bifidobacterium, the following test was carried out using the JCM10602 strain and the JCM1192 strain.
(§1) Note that the JCM10602 strain is Bifidobacterium animalis subsp. lactis (i.e., Bifidobacterium lactis), which is frequently used as a probiotic and is known to produce EPS at a high level, and the JCM1192 strain is a standard strain of Bifidobacterium breve, which is the same species as AT-APC-FucE1.
The JCM10602 strain was anaerobically cultured in a 0.5% Fuc mMRS culture medium and in a 0.5% Glu mMRS culture medium at 37° C. for 96 hours by the method described in Test 3 above.
When the EPS extracted from the culture supernatant was assayed, the amount of EPS produced in the culture medium using D-glucose (that is, the 0.5% Glu mMRS culture medium) was 132.97 mg/1000 mL (when extracted with trichloracetic acid) and 4.74 mg/1000 mL (when extracted with ethanol), whereas the amount of EPS produced in the culture medium using L-fucose (that is, the 0.5% Fuc mMRS culture medium) was 166.2 mg/1000 mL (when extracted with trichloracetic acid) and 13.33 mg/1000 mL (when extracted with ethanol).

[3] = test system: Bifidobacterium breve JCM1192 strain; assay: Induction of EPS production by L-fucose in JCM1192 strain; conditions: JCM1192, standard strain of Bifidobacterium breve
Procedure: as §1, with “In order to confirm whether the production of EPS is induced by L-fucose in other bacteria of the genus Bifidobacterium, the following test was carried out using the JCM10602 strain and the JCM1192 strain. Note” for “Note”

[4] = test system: Bifidobacterium breve AT-APC-FucE1 strain; assay: Confirmation of EPS production through culturing of AT-APC-FucE1 strain (transmission electron microscope); conditions: 1% Fuc mMRS culture medium vs 1% Glu mMRS culture medium, anaerobic, 37° C., 12 hours, transmission electron microscope (FIGS. 4 and 5)
Excerpt: An mMRS liquid culture medium comprising 0.5 wt. % and an mMRS liquid culture medium comprising 1 wt. % of D-glucose (hereinafter, the respective mMRS liquid culture mediums are also referred to as a “0.5% Glu mMRS culture medium” and a “1% Glu mMRS culture medium”, respectively) (composition: 10 g/L of beef extract, 5 g/L of yeast extract, 2 g/L of ammonium citrate, 5 g/L of sodium acetate, 0.1 g/L of magnesium sulfate, 0.05 g/L of manganese sulfate, 2 g/L of dipotassium hydrogen phosphate, 0.5 g/L of L-cysteine hydrochloride, and 0.5% or 1% D-glucose) were prepared. The 0.5% Glu mMRS culture medium was inoculated with the AT-APC-FucE1 strain, and pre-culturing was implemented anaerobically at 37° C. for 24 hours.
The 1% Fuc mMRS culture medium was then inoculated with 100 μL of the pre-cultured culture solution, and anaerobic culturing was carried out at 37° C. The AT-APC-FucE1 strain was collected from the culture solution that had been cultured for 12 hours, after which the bacterial cells were washed with phosphate-buffered saline (PBS), and subsequently, the bacterial cells were immobilized on a membrane, and the EPS production by the bacterial cells was confirmed using a transmission electron microscope. […]

| SMILES | amount of EPS produced (amount of protein subtracted from amount of crude EPS) [1] [mg/1000 mL] | amount of crude EPS extracted from the supernatant of culture solution [1] [mg/1000 mL] | amount of EPS produced, extracted with ethanol [2] [mg/1000 mL] | amount of EPS produced, extracted with trichloracetic acid [2] [mg/1000 mL] | production of EPS (electron microscope observation) ([2]; 0.5% Fuc mMRS vs 0.5% Glu mMRS culture medium, 96 hours (FIG. 7)) | induction of EPS production [3] | EPS production by the bacterial cells [4] |
| --- | --- | --- | --- | --- | --- | --- | --- |
| O=C[C@H](O)[C@@H](O)[C@H](O)[C@H](O)CO [D-glucose, reference compound] | 9.34 | ~13.33 | 4.74 | 132.97 |  |  |  |
| C[C@H](O)[C@@H](O)[C@@H](O)[C@H](O)C=O [L-fucose] | 13.14 | ~13.33 | 13.33 | 166.2 | improved | significant production induction by L-fucose was not confirmed | remarkably promoted |
